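Dose response: 5 concentrations. Exposure: 48 h. Format: 96-well plates. Endpoint: linear interpolation; highest concentration if not reached. GI50: concentration for 50% inhibition of growth.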 Activity calls are given as the source filed them. Rule as the data show it: active = GI50 up to about 1.1 µM and inactive = higher.
Key:
Experiment in all cases: NCI anticancer screen, dose series, 48 h
786-0 = tested on: 786-0
A549 = tested on: A549
CAKI-1 = tested on: CAKI-1
CCRF-CEM = tested on: CCRF-CEM
HOP-92 = tested on: HOP-92
IGROV-1 = tested on: IGROV-1
M14 = tested on: M14
NCI-H23 = tested on: NCI-H23
OVCAR-3 = tested on: OVCAR-3
SF-268 = tested on: SF-268
SNB-19 = tested on: SNB-19
TK-10 = tested on: TK-10
U-251 = tested on: U-251
UACC-257 = tested on: UACC-257
UACC-62 = tested on: UACC-62
HCC 2998 = tested on: HCC 2998
OVCAR-5 = tested on: OVCAR-5

Measured: GI50

COc1ccc2c(c1)NC1(O)c3ccccc3C(=O)C21O (stereo not given)
inactive: 786-0 > 100 µM | A549 > 100 µM | CAKI-1 > 100 µM | CCRF-CEM > 100 µM | HOP-92 > 100 µM | IGROV-1 > 100 µM | M14 > 100 µM | NCI-H23 > 100 µM | OVCAR-3 > 100 µM | SF-268 > 100 µM | SNB-19 > 100 µM | TK-10 > 100 µM | U-251 > 100 µM | UACC-257 > 100 µM | UACC-62 > 100 µM

COC(=O)CCC(NC(=S)N/N=C/c1ccco1)C(=O)OC (stereo not given)
inactive: 786-0 > 100 µM | A549 > 100 µM | CCRF-CEM > 100 µM | HCC 2998 > 100 µM | IGROV-1 > 100 µM | M14 > 100 µM | NCI-H23 > 100 µM | OVCAR-3 > 100 µM | OVCAR-5 > 100 µM | SF-268 > 100 µM | SNB-19 > 100 µM | TK-10 > 100 µM | U-251 > 100 µM | UACC-257 > 100 µM | UACC-62 > 100 µM

NC(=S)/N=C(/c1nc2ccc(Cl)cc2nc1O)C(O)c1ccccc1Cl (stereo not given)
inactive: 786-0 > 100 µM | A549 > 100 µM | CCRF-CEM > 100 µM | HCC 2998 > 100 µM | HOP-92 > 100 µM | IGROV-1 > 100 µM | M14 > 100 µM | NCI-H23 > 100 µM | OVCAR-5 > 100 µM | SF-268 > 100 µM | TK-10 > 100 µM | U-251 > 100 µM | UACC-257 > 100 µM | UACC-62 > 100 µM

COC1=CC2(C=CC1=O)c1cc(OC)c(OC)cc1CCN2C(=O)c1ccccc1 (stereo not given)
inactive: 786-0 > 100 µM | A549 > 100 µM | CAKI-1 > 100 µM | CCRF-CEM > 100 µM | HCC 2998 > 100 µM | HOP-92 > 100 µM | IGROV-1 > 100 µM | M14 > 100 µM | NCI-H23 > 100 µM | OVCAR-3 > 100 µM | SNB-19 > 100 µM | TK-10 > 100 µM | U-251 > 100 µM | UACC-257 > 100 µM | UACC-62 > 100 µM

Cc1ccc2c(c1)C(c1cccc3ccccc13)OC2=O (stereo not given)
inactive: 786-0 56.9 µM | A549 89.3 µM | CAKI-1 > 100 µM | CCRF-CEM > 100 µM | HCC 2998 > 100 µM | IGROV-1 > 100 µM | M14 41 µM | NCI-H23 75.9 µM | OVCAR-3 > 100 µM | OVCAR-5 > 100 µM | SF-268 > 100 µM | SNB-19 64.7 µM | TK-10 31.6 µM | U-251 58.2 µM | UACC-257 53.8 µM | UACC-62 > 100 µM

CS(=O)(=O)NNS(=O)(=O)c1ccc(Cl)cc1
inactive: 786-0 > 100 µM | A549 > 100 µM | CAKI-1 36.7 µM | CCRF-CEM 29.9 µM | HCC 2998 > 100 µM | IGROV-1 > 100 µM | M14 > 100 µM | NCI-H23 > 100 µM | OVCAR-3 > 100 µM | SNB-19 > 100 µM | TK-10 > 100 µM | U-251 > 100 µM | UACC-257 > 100 µM | UACC-62 > 100 µM

CCOC(=O)c1c(-c2ccccc2)oc(-c2ccccc2)c1C(=O)OCC
inactive: 786-0 > 100 µM | A549 > 100 µM | CCRF-CEM 41.1 µM | HCC 2998 67.1 µM | HOP-92 > 100 µM | IGROV-1 > 100 µM | M14 > 100 µM | NCI-H23 89.3 µM | OVCAR-3 > 100 µM | OVCAR-5 > 100 µM | SF-268 > 100 µM | SNB-19 > 100 µM | TK-10 > 100 µM | U-251 > 100 µM | UACC-257 77.6 µM | UACC-62 > 100 µM
